Experimental data reported in article PMC6737077, “DFMD: Fast and Effective DelPhiForce Steered Molecular Dynamics Approach to Model Ligand Approach Toward a Receptor: Application to Spermine Synthase Enzyme” (Frontiers in Molecular Biosciences, 2019).
Substitutions are numbered along the chain they refer to.

Tests used:
Assay in all cases: intrinsic protein fluorescence titration (ex […] nm, em […]-345 nm)
Type in all cases: binding
[1] = target: T1, human spermine synthase (SpmSyn) (Homo sapiens, UniProt P52788, G56S)
T1 construct: gene SMS; wild-type human SpmSyn expression construct of Wu et al. 2008; expressed in E. coli Rosetta 2, purified; homo-dimer
T1 sequence (P52788 2-366 G56S): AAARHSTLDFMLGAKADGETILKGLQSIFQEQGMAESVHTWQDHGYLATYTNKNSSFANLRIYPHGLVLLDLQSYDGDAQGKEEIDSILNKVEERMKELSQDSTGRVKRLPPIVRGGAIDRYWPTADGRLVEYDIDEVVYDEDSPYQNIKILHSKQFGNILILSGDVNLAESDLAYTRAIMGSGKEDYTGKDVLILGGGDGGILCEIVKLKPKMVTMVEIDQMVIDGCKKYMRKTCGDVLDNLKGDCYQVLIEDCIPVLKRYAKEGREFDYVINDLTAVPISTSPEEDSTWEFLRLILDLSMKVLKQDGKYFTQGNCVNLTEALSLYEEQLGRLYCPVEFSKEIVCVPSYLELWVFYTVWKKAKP

[2] = target: T2, human spermine synthase (SpmSyn) (Homo sapiens, UniProt P52788)
T2 construct: gene SMS; wild-type human SpmSyn expression construct of Wu et al. 2008; expressed in E. coli Rosetta 2, purified; homo-dimer
T2 sequence (P52788 2-366): T1 sequence (P52788 2-366 G56S) with S55G

[3] = target: T3, human spermine synthase (SpmSyn) (Homo sapiens, UniProt P52788, D201A)
T3 construct: gene SMS; wild-type human SpmSyn expression construct of Wu et al. 2008; expressed in E. coli Rosetta 2, purified; homo-dimer
T3 sequence (P52788 2-366 D201A): T1 sequence (P52788 2-366 G56S) with S55G, D200A

How did the Kd [1] turn out when `C[S+](CC[C@H](N)C(=O)O)C[C@H]1O[C@@H](n2cnc3c(N)ncnc32)[C@H](O)[C@@H]1O` (stereo partly drawn) [AdoMet] was run?
Its Kd is 410 ± 57 µM.

What about the Kd [2] of the same molecule?
The Kd was 272 ± 24 µM.

And the Kd [3]?
The Kd was 1020 ± 69 µM.
